From patent US6441038B1, “Treatment of fatigue, head injury and stroke” (Laxdale Limited, priority 1999, dated 2002)

Assays:
[1] = system: brain lesions / LC function; settings: animal studies, literature; cited from earlier work
[2] = system: post-stroke depression and fatigue; experiment: Case History No. 2: depression and fatigue after stroke; format: in vivo, human; settings: person; antidepressant alone

| SMILES | effect on LC function and recovery of motor function after brain lesions [1] | effect on post-stroke depression and fatigue [2] |
| --- | --- | --- |
| CNCCCN1c2ccccc2CCc2ccccc21 [desipramine] | able to enhance |  |
| CNCCC(Oc1ccc(C(F)(F)F)cc1)c1ccccc1 (stereo not shown) [fluoxetine] |  | without much success |
| CN(C)CCCN1c2ccccc2CCc2ccccc21 [imipramine] |  | without much success |
| CN(CCCN1c2ccccc2CCc2ccccc21)CC(=O)c1ccc(Cl)cc1 [lofepramine] |  | without much success |
